This passage reports melting point results from a melting point compilation (Tetko et al.; mined from patent text by program, amines drawn as free bases though some values may be those of a salt).

Structures are written as SMILES. Where only a bound is given, the exact number is not on record here.

A word on the melting point: it is the temperature of the solid-liquid transition.

As for `COc1ccc(Cn2nnnc2C(=O)Nc2cc(C(F)(F)F)cc(NC(=O)c3nnnn3Cc3ccc(OC)cc3)c2Cl)cc1`, the melting point was in the range of 185 to 186 °C.
Regarding `O=C(Cn1c(=O)n(-c2ccc3c(c2)OCO3)c2ncccc21)N1CCOCC1`, the melting point is 212 to 213 °C.
The value for `ClCSc1nc(Cl)c(Cl)nc1Cl` was 68 to 70 °C; that for `CCCCn1c(SC(CC)C(N)=O)nc2c1c(=O)[nH]c(=O)n2C` (stereo not given) was 253 °C; that for `c1ccc(-c2ncc(-c3ccc4cc(OCc5nnn[nH]5)ccc4c3)o2)cc1` was 239 to 241 °C.
The value for `CCCCN1C[C@H](CO)[C@@H](O)[C@H](O)C1` was 94 to 95 °C.
`Cn1c(CCCCl)nc2ccc3ccccc3c21`: the melting point is 246 to 248 °C.
`CCOC(=O)c1nnnn1Cc1ccc(OC)cc1` had a melting point of 52 °C.
Consider `COC(=O)c1cccc(-c2c(C)c(C(=O)c3ccc(N)c(C(=O)OC)c3)n3ccccc23)c1`, for which the melting point is 232 °C.
On to `CCOC(=O)CC(C#N)(CC(=O)OCC)c1ccccn1`, for which the melting point lay in the range of 86.5 to 88 °C.
The compound `CCCCCS(=O)(=O)NC(=O)/C=C/c1ccc(OCCOC)cc1Oc1cc(C(F)(F)F)ccc1[N+](=O)[O-]` yielded a melting point of 164 to 165 °C.
The compound `O=Cc1cc2ccc3ccsc3c2c2ccccc12` returned a melting point of 173 to 177 °C.
The compound `Cc1cc(-c2ccc(-c3ccco3)cc2)n(-c2ccc(S(N)(=O)=O)cc2)c1` displayed a melting point of 153 to 155 °C.
Under `CCc1nc(=O)c2cc3ccccc3nc2[nH]1` stands 240 to 245 °C; under `CC(C)CC(NC(=O)C1CCCN1C(=O)OCc1ccccc1)OCC(=O)O` (stereo not given), 118 to 120 °C.
Turning to `CN(Cc1ccccc1S(=O)c1nc2ccccc2[nH]1)c1ccccc1` (stereo not given), the melting point fell in the range of 164 to 166 °C.
Compound `Cc1c(O)ccc2c(-c3ccccc3F)noc12` registered a melting point of 216 to 219 °C.
The value for `Cc1cc(Oc2ncc(C(F)(F)F)cc2Cl)nn1C(N)=O` was 101 to 104 °C.
The compound `CCN(CC)CCNc1ccc(CNS(C)(=O)=O)c2sc3ccc(Br)cc3c(=O)c12` displayed a melting point of 134 to 139 °C.
`CSc1ccc(N2CC=C(c3cccc(C)c3)CC2)nn1`: the melting point was determined as 130 °C.
In turn, `COc1ccc([N+](=O)[O-])c2nccc(Cl)c12` had a melting point of 125 to 138 °C.
Under `CN(CCCCNC(=O)NCCSCc1csc(NC(=N)N)n1)CCOC(c1ccccc1)c1ccccc1` stands 101 °C.
Consider `C=C(c1ccccc1)c1ccc(N)c(N)c1`, for which the melting point was 109 to 110 °C.
`CCOC(=O)c1c(C)nc2c3cccc(Cl)c3ccn12`: the melting point lay within 140 to 141 °C.
Regarding `O=[N+]([O-])C(Sc1ccccc1)=C1NCCCS1`, the melting point lay in the range of 144 to 147 °C.
For the compound `Cc1noc(NC(=O)N2CCN(c3nc(-c4cccc(Cl)c4)cs3)CC2)c1C`, the melting point lay in the range of 201 to 202 °C.
Under `COc1n[nH]c(=O)n1C` stands 146 °C; under `Nc1nc2c(s1)CCN(CC=Cc1ccc(F)cc1)CC2`, 142 to 146 °C; under `COc1ccc(C(=O)NCCn2c(C)ccc2C)cc1OC`, 82 to 84 °C.
The compound `Cc1nc(N2CCNCC2)nc(N2CCSCC2)c1C#N` gave a melting point of 146 to 148 °C.
`O=C(Nc1cc(Cl)cc(Cl)c1O)Nc1cccc(C(F)(F)F)c1Cl`: the melting point lay within 161 to 163 °C.
Regarding `O=C(O)c1ccc(OCCCCl)cn1`, the melting point was in the range of 120 to 121 °C.
Compound `Cc1c(CC[Si](Cl)(Cl)Cl)c(CC[Si](Cl)(Cl)Cl)c(C)c(CC[Si](Cl)(Cl)Cl)c1CC[Si](Cl)(Cl)Cl` had a melting point of 220 to 224 °C.
Compound `Cc1c(-c2cccnc2)n(CCCC=CC(=O)O)c2ccccc12` came in with a melting point of 145 to 147 °C.
Under `Fc1ccc(OCCCCCN2CCN(c3nccs3)CC2)cc1` stands 42 to 44 °C; under `CSc1cc(C(=O)CBr)ccc1C`, 85 to 86 °C; under `Cc1[nH]c(=O)ccc1C#N`, more than 300 °C.
The value for `Cc1nc2ccc3ccc(CNc4ccc5c(c4)CN([C@@H](CCC(=O)O)C(=O)N[C@@H](Cc4ccccc4)C(=O)O)C5=O)cc3c2c(=O)[nH]1` was 180 °C.
The value for `COc1cc(CC(=O)NCCOCc2ccc(C)c(C)c2)ccc1OCCN` was 60 to 62 °C; that for `OC1CSC(Oc2ccc(-c3cncnc3)nc2Cl)C(O)C1O` (stereo not given) was 100 °C.
As to `COc1ccc2c(c1)CCC(=O)NC2c1ccccc1` (stereo not given), the melting point is 185 to 186 °C.
Under `COC(=O)c1ccc(Cl)c2nc(C(C)(C)C)oc12` stands 130 to 131 °C; under `CC1(C)CCC(C)(C)c2cc(S(=O)(=O)c3ccc(C(=O)O)cc3)ccc21`, 218 to 220 °C.
For `COC(=O)c1nc(-c2cc(N(C)C)c(Cl)cc2F)cc(N)c1Cl`, the melting point lay within 113 to 115 °C.
The compound `COc1cc(-n2nc(C(F)(F)F)cc2-c2ccc(-c3ccco3)cc2)ccc1S(C)(=O)=O` yielded a melting point of 139 °C.
Compound `CC(=O)NC(=O)OCc1nc(C(C)C)c(Sc2cc(Cl)cc(Cl)c2)n1Cc1ccncc1` registered a melting point of 135 to 137 °C.
The value for `Nc1cc(Br)nn1-c1c(Cl)cc(C(F)(F)F)cc1Cl` was 132 to 134 °C.
Consider `CCOC(=O)CCc1csc2c(C(=O)OCC)c(=O)c3cc(F)c(Cl)cc3n12`, for which the melting point was found to be 200 °C.
Consider `O=C(O)Cn1cc(Cl)c(-c2cc(Cl)cc(Cl)c2)n1`, for which the melting point amounted to 182 °C.
Consider `Cc1nc(N2CCCN(CC3CC3)C2=O)sc1C(=O)NCc1cccnc1`, for which the melting point was in the range of 142 to 145 °C.
Under `N#CCc1nnc2n1-c1ccc(Cl)cc1C(c1ccccc1)=NC2` stands 198 to 201 °C.
`CCCCCS(=O)(=O)NC(=O)/C=C/c1ccc(OCCOC)cc1Oc1ncc(C(F)(F)F)cc1Cl` registered a melting point of 123 to 125 °C.
In the case of `CN1C(C)(C)CC(O)C(O)C1(C)C` (stereo not given), the melting point amounted to 78 °C.
The compound `CCc1nc2c(cnn2CC)c(NC2CCOCC2)c1CNC(=O)c1cccc(C(=O)NCc2ccc(C)c(-c3cccc(CN4CCCN(C)CC4)c3)c2)c1` gave a melting point of 107 to 109 °C.
Under `COC(=O)c1nc(OC)n2c1CN=C(c1ccccc1Cl)c1cc(Cl)ccc1-2` stands 155 to 160 °C.
The value for `CN1CCN(Cc2ccc(-c3cccc(-c4cncc(C#N)c4Nc4ccc5[nH]ccc5c4)c3)s2)CC1` was 120 to 123 °C; that for `CCCC1=C(C(=O)OCC)C(c2csc3ccccc23)c2c[nH]nc2N1` (stereo not given) was 222 °C; that for `COc1ccc(N2CC(CSCCCSc3ccnc(CNc4nc(C)nc(C)c4Cl)c3C)OC2=O)cc1` (stereo not given) was 161 to 164 °C.
Take `CC(C)OCc1cnc2c(N)cccc2c1Cl`: the melting point lay in the range of 94 to 95 °C.
For the compound `COc1cc(C=C(C#N)C(=O)Nc2cccc(Cl)c2)cc(Cl)c1O`, the melting point fell in the range of 225 to 226 °C.
`CSc1nc(SC)c2ccccc2n1` registered a melting point of 85 °C.
The compound `C=CCC[Si](c1ccccc1)(c1ccccc1)C1SCCCS1` gave a melting point of 47 to 49 °C.
As to `N#CC1=Cc2ccc(OCc3ccccc3)cc2OC1`, the melting point was 108 to 109 °C.
The value for `CCOC(=O)c1c(NCc2ccccc2)nc2ccc(Br)cc2c1Cl` was 163 to 165 °C.
In turn, `CCCCc1nc2c(N)nc3ccc(OCC(=O)N(CCOC)CCOC)cc3c2n1C` returned a melting point of 125 to 128 °C.
`O=[N+]([O-])c1nccn1C1CCCCC1O` (stereo not given) yielded a melting point of 141 °C.
Under `CC(=O)n1nc(-c2ccccc2)cc1Sc1ccccc1` stands 83 to 84.5 °C.
As for `Cn1c(=O)cc(-c2ccccc2)c2cc(C(c3ccc(Cl)cc3)n3ccnc3)ccc21` (stereo not given), the melting point came to 155 °C.
Regarding `O=Cc1cc(Br)cc(Cc2cccnc2)c1`, the melting point was in the range of 97 to 98 °C.
The compound `CCCSc1nc(-c2ccc(OC)cc2)c(-c2ccc(OC)cc2)s1` showed a melting point of 58 to 60 °C.
Under `COC(=O)c1c(C(F)F)nc(C(F)(F)F)c(C(O)c2cccs2)c1CC(C)C` (stereo not given) stands 78 to 88 °C; under `CCSCC1=C(O)CC(C)(C)CC1=O`, 134 °C.
The compound `CCOC(=O)C1=C(C)NC(CCN(C)C)=C(C(=O)OCC)C1c1ccccc1/C=C(\C)C(=O)OCC` (stereo not given) displayed a melting point of 109 °C.
`CCCCc1oc2ccc(N)cc2c1C(=O)c1ccc(OCCCO)cc1` had a melting point of 86 to 90 °C.
With `O=C(Nc1cccnn1)N1CCN(c2ccnc(-c3cccc(F)c3F)n2)CC1`, the melting point is 235 to 236 °C.
In turn, `CC(NC(=O)C1CCNCC1)c1ccccc1` (stereo not given) displayed a melting point of 136 °C.
Compound `Fc1ccc(-c2nc3ccccn3c2Br)c(F)c1` yielded a melting point of 144 °C.
`CNS(=O)(=O)c1ccc(Oc2ccncc2)cc1` returned a melting point of 125 to 127 °C.
On to `CCCC(=O)c1c[nH]c2ccc(OC)cc2c1=O`, for which the melting point was in the range of 252 to 254 °C.
The value for `Cc1ccc(S(=O)(=O)n2cc(C=O)c3ccc(C(=O)Nc4c(Cl)cncc4Cl)cc32)cc1` was 245 °C.
`O=C(c1ccc(F)cc1)C1CCN(CCN2c3cccc4cccc(c34)S2(=O)=O)CC1` registered a melting point of 145 °C.
Compound `CCOC(=O)c1ncc2[nH]c3ccc(C#N)cc3c2c1COC` displayed a melting point of 252 to 255 °C.
Turning to `CCCCSc1nc(O)ns1`, the melting point was 78 °C.
The value for `CCC(=O)Nc1c([N+](=O)[O-])cnn1-c1ccc(Cl)c(Cl)c1Cl` was 79 to 81 °C; that for `CCOC(=O)C1=CC(C(=O)c2cc(Cl)ccc2O)=CN2CCc3c([nH]c4ccc(OC)cc34)C12C(=O)OCC` (stereo not given) was 230 °C.
As to `Cc1ccc2[nH]c3c(cc(-c4ccc(O)cc4)c(=O)n3C)c2c1`, the melting point was determined as 186 °C.
Under `COP(=O)(OC)[C@H](C)NC(=O)[C@H](C)NC(=O)[C@H](C)NC(=O)OCc1ccccc1` stands 149 to 151 °C.
For `O=C1C(c2ccccc2)=C(c2ccccc2)C(=O)N1CCc1cccc(F)c1`, the melting point lay within 129 to 130 °C.
Compound `O=C1C=CC(O)(c2cc3ccccc3n2S(=O)(=O)c2ccc(F)cc2)C=C1` yielded a melting point of 165 to 166 °C.
Under `C/C=C/C[C@@H](C)[C@@H](O)[C@H](NC)C(=O)O` stands 228 to 233 °C.
